The target in assay [1] is T1, Erk3 (Homo sapiens, UniProt Q16659). Put plainly: biochemical.
Assay [2] has as its target MST4 (Homo sapiens, UniProt Q9P289). Nature of the assay: biochemical.
The target of assay [3] is T2, MST2 (Homo sapiens, UniProt Q13188).
T2 sequence (Q13188 1-491): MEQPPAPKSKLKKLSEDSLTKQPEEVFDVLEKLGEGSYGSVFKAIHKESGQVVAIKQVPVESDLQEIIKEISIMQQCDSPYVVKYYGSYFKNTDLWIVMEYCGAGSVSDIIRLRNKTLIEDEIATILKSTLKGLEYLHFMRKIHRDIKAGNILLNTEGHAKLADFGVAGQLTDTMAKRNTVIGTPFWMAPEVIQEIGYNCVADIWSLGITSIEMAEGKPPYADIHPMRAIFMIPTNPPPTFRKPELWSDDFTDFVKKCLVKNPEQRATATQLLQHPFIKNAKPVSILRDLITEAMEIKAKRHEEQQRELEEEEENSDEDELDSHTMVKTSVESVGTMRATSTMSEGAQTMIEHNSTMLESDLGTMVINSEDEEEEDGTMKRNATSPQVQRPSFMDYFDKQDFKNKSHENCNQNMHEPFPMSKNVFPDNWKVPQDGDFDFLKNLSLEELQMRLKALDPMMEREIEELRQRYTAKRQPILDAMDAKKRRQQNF
Nature of the assay: biochemical.

The target of assay [4] is EpHB3 (Homo sapiens, UniProt P54753). Nature of the assay: NanoBRET target engagement. It is filed as cell-based.
EpHB3, sequence (P54753 34-998): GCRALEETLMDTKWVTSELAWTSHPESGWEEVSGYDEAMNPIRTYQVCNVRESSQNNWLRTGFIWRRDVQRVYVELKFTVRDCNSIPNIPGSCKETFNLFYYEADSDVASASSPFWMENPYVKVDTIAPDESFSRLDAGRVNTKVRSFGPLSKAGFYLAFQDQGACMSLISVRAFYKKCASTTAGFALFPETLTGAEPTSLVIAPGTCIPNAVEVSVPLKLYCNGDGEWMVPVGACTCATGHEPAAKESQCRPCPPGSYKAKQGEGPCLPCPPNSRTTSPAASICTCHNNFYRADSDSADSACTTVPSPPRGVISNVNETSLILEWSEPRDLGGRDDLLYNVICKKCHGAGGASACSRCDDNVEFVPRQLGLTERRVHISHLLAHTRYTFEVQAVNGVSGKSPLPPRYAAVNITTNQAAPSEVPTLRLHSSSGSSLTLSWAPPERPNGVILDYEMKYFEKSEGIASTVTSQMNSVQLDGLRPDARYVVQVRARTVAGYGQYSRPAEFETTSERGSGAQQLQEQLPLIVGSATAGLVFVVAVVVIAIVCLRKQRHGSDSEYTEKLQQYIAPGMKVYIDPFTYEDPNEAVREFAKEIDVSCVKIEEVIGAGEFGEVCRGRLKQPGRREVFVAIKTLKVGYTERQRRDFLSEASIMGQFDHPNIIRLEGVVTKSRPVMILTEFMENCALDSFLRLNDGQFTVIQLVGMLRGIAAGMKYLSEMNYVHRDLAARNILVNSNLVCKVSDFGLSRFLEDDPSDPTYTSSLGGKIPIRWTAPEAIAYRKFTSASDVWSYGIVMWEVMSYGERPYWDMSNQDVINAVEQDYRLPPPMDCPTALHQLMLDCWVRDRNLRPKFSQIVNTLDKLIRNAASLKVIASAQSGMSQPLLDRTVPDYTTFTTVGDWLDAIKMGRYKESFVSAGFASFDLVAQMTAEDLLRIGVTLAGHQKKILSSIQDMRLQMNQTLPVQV
The target of assay [5] is EpHA2 (Homo sapiens, UniProt P29317). Put plainly: NanoBRET target engagement. Type of assay: cell-based.
EpHA2, sequence (P29317 24-976): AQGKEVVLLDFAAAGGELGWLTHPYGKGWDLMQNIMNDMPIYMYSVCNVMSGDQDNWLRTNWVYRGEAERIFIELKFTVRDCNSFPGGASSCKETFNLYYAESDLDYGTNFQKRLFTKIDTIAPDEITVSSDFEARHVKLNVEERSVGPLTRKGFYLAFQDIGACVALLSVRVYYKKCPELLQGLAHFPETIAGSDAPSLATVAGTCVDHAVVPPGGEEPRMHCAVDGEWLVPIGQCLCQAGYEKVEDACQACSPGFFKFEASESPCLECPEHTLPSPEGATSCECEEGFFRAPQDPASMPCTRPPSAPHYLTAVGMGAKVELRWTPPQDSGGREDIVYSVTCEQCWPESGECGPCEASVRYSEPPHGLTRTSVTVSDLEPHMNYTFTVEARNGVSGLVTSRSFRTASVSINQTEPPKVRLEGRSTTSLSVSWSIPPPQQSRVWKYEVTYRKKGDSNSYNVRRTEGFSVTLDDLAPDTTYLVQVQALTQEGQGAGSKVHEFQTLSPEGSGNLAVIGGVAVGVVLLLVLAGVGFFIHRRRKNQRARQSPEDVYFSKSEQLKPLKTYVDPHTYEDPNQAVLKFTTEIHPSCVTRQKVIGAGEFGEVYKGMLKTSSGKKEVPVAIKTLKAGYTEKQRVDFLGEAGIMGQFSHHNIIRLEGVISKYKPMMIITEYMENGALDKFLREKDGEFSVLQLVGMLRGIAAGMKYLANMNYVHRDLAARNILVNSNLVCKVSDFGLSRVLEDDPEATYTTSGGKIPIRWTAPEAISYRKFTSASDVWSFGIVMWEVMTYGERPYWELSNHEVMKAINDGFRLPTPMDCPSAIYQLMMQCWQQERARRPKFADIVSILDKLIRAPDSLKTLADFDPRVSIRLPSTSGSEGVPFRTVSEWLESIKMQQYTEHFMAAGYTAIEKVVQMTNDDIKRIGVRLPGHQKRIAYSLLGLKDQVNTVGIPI
Assay [6] addresses EpHB2 (Homo sapiens, UniProt P29323). Nature of the assay: NanoBRET target engagement. It is filed as cell-based. (In BRET a luciferase serves as donor, and the signal depends on an acceptor being close.)
In assay [7] the target is EpHA3 (Homo sapiens, UniProt P29320). Nature of the assay: NanoBRET target engagement. Type of assay: cell-based.
In assay [8] the target is ABL1 (Homo sapiens, UniProt P00519). Put plainly: NanoBRET target engagement. Type of assay: cell-based.
ABL1, sequence (P00519 whole entry): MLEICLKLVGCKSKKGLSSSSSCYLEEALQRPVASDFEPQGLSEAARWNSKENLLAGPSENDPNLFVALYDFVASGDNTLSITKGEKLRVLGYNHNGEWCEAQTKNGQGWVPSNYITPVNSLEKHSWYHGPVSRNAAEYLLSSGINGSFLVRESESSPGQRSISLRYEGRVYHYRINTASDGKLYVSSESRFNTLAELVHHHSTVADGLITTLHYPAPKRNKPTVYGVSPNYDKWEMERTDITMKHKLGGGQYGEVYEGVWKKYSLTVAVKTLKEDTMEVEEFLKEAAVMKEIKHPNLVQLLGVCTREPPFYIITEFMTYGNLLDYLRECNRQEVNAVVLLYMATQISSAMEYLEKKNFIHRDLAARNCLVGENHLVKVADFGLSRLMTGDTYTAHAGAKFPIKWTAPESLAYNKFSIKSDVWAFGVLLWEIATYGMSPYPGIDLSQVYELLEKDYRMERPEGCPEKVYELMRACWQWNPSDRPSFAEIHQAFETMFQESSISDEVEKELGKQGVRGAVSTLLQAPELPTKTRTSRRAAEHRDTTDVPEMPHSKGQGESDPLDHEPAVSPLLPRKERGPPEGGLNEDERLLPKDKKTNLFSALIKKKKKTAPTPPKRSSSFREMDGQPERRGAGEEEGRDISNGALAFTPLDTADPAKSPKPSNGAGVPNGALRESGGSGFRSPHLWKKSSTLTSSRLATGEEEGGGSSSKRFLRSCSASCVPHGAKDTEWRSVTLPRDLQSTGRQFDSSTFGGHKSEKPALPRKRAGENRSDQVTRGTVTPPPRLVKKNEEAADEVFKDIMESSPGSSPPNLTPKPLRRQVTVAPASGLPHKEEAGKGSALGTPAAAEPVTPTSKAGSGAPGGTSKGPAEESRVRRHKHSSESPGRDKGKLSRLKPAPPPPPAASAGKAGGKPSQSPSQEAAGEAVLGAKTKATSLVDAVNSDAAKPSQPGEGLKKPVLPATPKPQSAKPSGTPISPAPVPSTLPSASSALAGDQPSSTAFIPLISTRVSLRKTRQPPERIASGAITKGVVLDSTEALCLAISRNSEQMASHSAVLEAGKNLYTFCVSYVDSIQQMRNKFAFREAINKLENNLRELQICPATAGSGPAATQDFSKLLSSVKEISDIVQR
In assay [9] the target is EpHA5 (Homo sapiens, UniProt P54756). Put plainly: NanoBRET target engagement. Type of assay: cell-based.
Assay [10] concerns the target T3, BMX (Homo sapiens, UniProt P51813).
T3 sequence (P51813 1-675): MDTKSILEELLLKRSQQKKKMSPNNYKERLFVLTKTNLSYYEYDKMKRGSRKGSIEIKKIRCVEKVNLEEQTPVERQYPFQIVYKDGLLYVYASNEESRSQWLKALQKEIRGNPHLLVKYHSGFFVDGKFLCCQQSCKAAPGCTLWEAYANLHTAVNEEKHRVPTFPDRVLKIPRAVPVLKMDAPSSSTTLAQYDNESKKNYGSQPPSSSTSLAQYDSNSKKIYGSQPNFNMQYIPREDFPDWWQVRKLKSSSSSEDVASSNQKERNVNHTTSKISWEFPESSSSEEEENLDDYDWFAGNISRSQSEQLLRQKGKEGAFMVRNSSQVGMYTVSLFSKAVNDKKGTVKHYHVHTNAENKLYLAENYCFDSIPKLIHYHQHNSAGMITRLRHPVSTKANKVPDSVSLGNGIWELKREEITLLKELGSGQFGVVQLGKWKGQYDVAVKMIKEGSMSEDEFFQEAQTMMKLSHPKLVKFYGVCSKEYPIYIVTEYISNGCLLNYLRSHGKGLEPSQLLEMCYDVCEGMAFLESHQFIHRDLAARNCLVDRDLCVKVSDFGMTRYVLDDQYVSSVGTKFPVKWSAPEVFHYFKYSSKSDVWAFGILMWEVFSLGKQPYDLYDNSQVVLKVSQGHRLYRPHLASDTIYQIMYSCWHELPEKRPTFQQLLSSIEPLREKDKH
Put plainly: NanoBRET target engagement. Type of assay: cell-based.

Assay [11] has as its target EpHA4 (Homo sapiens, UniProt P54764). Put plainly: NanoBRET target engagement. Type of assay: cell-based.
Assay [12] has as its target T4, MSSK1 (Homo sapiens, UniProt Q9UPE1). Put plainly: biochemical.
Assay [13] addresses GAK (Homo sapiens, UniProt O14976). Nature of the assay: NanoBRET target engagement. Type of assay: cell-based.
For assay [14], the target named is EpHA2 (kinase domain) (Homo sapiens, UniProt P29317). Nature of the assay: X-ray crystal structure. It is filed as binding. The note with it: co-crystal, 293 K.
EpHA2 (kinase domain), sequence (P29317 596-900): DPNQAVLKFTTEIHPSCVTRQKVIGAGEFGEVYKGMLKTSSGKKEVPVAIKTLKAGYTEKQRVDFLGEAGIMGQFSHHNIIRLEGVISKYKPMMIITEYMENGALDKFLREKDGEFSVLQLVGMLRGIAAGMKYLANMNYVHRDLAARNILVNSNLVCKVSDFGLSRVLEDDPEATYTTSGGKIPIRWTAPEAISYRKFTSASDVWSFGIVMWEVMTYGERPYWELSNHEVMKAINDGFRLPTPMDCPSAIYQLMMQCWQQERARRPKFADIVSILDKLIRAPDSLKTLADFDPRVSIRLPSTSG
Assay [15] deals with T4, MSSK1. Nature of the assay: biochemical. The note with it: read-out: dTm 12.
Assay [16] deals with CK1e (Homo sapiens, UniProt P49674). Put plainly: biochemical. The note with it: read-out: dTm 12.
Assay [17] deals with SLK (Homo sapiens, UniProt Q9H2G2). Put plainly: biochemical. Conditions: read-out: dTm 12.
Assay [18] has as its target T1, Erk3. Put plainly: biochemical. The note with it: read-out: dTm 12.

Read-outs that look alike come from different tables or passages of the source.

T1 sequence (Q16659 whole entry): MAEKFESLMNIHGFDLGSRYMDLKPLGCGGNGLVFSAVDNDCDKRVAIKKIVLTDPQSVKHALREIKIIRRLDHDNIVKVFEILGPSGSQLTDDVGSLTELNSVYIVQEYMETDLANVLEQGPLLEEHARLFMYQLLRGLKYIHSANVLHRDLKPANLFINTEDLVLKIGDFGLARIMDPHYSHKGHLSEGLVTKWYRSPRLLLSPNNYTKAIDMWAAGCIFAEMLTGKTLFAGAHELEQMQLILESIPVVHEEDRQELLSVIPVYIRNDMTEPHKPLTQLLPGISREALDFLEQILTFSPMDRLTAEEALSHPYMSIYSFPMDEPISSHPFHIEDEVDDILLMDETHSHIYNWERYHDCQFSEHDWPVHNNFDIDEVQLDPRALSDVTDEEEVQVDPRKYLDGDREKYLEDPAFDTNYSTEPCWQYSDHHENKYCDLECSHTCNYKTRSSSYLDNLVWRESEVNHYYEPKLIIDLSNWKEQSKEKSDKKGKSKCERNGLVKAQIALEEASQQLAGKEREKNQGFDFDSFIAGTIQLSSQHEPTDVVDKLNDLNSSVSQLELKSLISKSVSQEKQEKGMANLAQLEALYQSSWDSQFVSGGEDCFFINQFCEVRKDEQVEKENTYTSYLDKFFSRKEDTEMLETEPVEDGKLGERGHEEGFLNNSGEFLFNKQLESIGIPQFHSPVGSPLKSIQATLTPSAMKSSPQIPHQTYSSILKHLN
T4 sequence (Q9UPE1 whole entry): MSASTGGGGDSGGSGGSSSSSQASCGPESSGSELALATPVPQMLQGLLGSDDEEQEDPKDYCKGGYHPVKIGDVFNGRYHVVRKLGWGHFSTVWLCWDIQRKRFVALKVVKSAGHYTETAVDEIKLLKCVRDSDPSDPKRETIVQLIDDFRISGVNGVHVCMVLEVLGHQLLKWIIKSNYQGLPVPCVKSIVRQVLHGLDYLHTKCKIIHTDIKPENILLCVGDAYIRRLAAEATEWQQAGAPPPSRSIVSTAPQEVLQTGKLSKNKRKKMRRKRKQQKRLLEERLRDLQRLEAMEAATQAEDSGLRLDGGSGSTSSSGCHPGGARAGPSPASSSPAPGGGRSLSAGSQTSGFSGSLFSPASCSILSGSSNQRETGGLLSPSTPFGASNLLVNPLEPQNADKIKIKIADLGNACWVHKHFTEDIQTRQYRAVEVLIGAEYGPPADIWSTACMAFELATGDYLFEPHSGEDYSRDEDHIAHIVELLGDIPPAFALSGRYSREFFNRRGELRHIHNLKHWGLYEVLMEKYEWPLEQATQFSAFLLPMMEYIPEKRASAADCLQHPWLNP
MST4, sequence (Q9P289 whole entry): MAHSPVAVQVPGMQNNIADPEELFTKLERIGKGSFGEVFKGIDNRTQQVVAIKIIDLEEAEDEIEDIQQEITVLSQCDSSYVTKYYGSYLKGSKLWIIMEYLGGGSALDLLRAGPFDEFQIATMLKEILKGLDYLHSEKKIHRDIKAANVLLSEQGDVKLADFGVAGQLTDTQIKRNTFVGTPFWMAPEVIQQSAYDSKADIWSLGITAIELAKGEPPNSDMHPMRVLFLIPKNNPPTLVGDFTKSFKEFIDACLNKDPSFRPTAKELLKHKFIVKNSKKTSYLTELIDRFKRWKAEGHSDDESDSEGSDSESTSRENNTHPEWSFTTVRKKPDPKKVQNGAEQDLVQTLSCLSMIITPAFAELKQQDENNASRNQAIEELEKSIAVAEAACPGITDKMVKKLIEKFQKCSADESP

Turning to `CNc1ncc2cc(-c3ccc(-c4cccc(C)n4)cc3Cl)c(=O)n(CC3OCC(N)CO3)c2n1` (centres unmarked) [compound 2, G-5555], in assay [1] (10 µM, binder), the “dTm G-5555 (2)” value turned out to be 0.3 °C. The “∆Tm G-5555 (2)” value in assay [2] (10 µM, binder) was found to be 6.1 degC; in assay [3] (10 µM, binder) it was 6.9 degC.

`CNc1ncc2cc(-c3cc(Cl)ccc3Cl)c(=O)n(CCCCN)c2n1` [compound 8, 8-(4-Aminobutyl)-6-(2,5-dichlorophenyl)-2-(methylamino)pyrido[2,3-d]pyrimidin-7(8H)-one]: the 50% inhibitory concentration (IC50) in [4], in assay [5], in [6], in assay [7], in assay [8] and in assay [9] was > 1 µM each time. In addition, the IC50 in [10] was > 1 µM; in assay [11], 0.346 ± 0.001 µM.

For the compound `CNc1ncc2cc(-c3ccccc3Cl)c(=O)n(CCCCN)c2n1` [compound 4, 8-(4-Aminobutyl)-6-(2-chlorophenyl)-2-(methylamino)pyrido[2,3-d]pyrimidin-7(8H)-one], the ΔTm at 10 µM is 0.2 °C in [12] (read-out: dTm MR21 (4)) and 1 °C in [3] (read-out: ∆Tm MR21 (4)). Moreover, the IC50 in assay [4] was > 1 µM; in assay [5] it was 0.21 ± 0.036 µM; in assay [6], > 1 µM; in assay [7], 0.313 ± 0.121 µM; in [8] it was > 1 µM; in [9] it was 0.928 ± 0.006 µM. Moreover, the IC50 was > 1 µM in assay [13] and 0.066 ± 0.038 µM in assay [11].

Regarding `CNc1ncc2cc(-c3cc(F)ccc3F)c(=O)n(CCCCN)c2n1` [compound 5, 8-(4-Aminobutyl)-6-(2,5-difluorophenyl)-2-(methylamino)pyrido[2,3-d]pyrimidin-7(8H)-one], the ΔTm at 10 µM in assay [12] (read-out: dTm MR22 (5)) was -0.1 °C; in [1] (read-out: dTm MR22 (5)) it was 0.5 °C; in [2] (read-out: ∆Tm MR22 (5)) it was 1.4 °C.

`CNc1ncc2cc(-c3cc(C(F)(F)F)ccc3Cl)c(=O)n(CCCCN)c2n1` [compound 9, 8-(4-Aminobutyl)-6-(2-chloro-5-(trifluoromethyl)phenyl)-2-(methylamino)pyrido[2,3-d]pyrimidin-7(8H)-one]: in [14], the X-ray crystal structure is recorded as 8BIO (EpHA2-9 complex).

In the case of `CNc1ncc2cc(-c3cc(F)c(-c4cccc(C)n4)cc3F)c(=O)n(CCCCN)c2n1` [compound 12, 8-(4-Aminobutyl)-6-(2,5-difluoro-4-(6-methylpyridin-2-yl)phenyl)-2-(methylamino)pyrido[2,3-d]pyrimidin-7(8H)-one], the ΔTm at 10 µM is -0.2 °C in assay [15], 3.1 °C in assay [16], 2.9 °C in assay [17] and 0.7 °C in [18].

By IC50 is commonly meant the concentration that inhibits the measured activity by half. A lower IC50 goes with greater potency.
